Experimental data reported in PubChem BioAssay (NCI).
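Dose response: 5 concentrations. Exposure: 48 h. Format: 96-well plates. Endpoint: linear interpolation; highest concentration if not reached. TGI marks complete inhibition of growth.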

Experiments:
Assay in all cases: DTP human tumour cell line panel, 48 h
ACHN renal = test system: ACHN renal
HCT-15 colon = test system: HCT-15 colon
TK-10 renal = test system: TK-10 renal
K-562 leukemia = test system: K-562 leukemia
A549 NSCLC = test system: A549 NSCLC
SW-620 colon = test system: SW-620 colon
NCI-H226 lung = test system: NCI-H226 lung
NCI-H460 lung = test system: NCI-H460 lung
COLO 205 colon = test system: COLO 205 colon
M14 melanoma = test system: M14 melanoma
HT29 colon = test system: HT29 colon
IGROV1 ovarian = test system: IGROV1 ovarian
HOP-92 NSCLC = test system: HOP-92 NSCLC
SK-MEL-5 melanoma = test system: SK-MEL-5 melanoma
CAKI-1 renal = test system: CAKI-1 renal
SNB-75 CNS = test system: SNB-75 CNS

Compound	TGI (ACHN renal) [µM]	TGI (HCT-15 colon) [µM]	TGI (TK-10 renal) [µM]	TGI (K-562 leukemia) [µM]	TGI (A549 NSCLC) [µM]	TGI (SW-620 colon) [µM]	TGI (NCI-H226 lung) [µM]	TGI (NCI-H460 lung) [µM]	TGI (COLO 205 colon) [µM]	TGI (M14 melanoma) [µM]	TGI (HT29 colon) [µM]	TGI (IGROV1 ovarian) [µM]	TGI (HOP-92 NSCLC) [µM]	TGI (SK-MEL-5 melanoma) [µM]	TGI (CAKI-1 renal) [µM]	TGI (SNB-75 CNS) [µM]
CN1N=C2c3ccccc3OC(c3ccccc3)[C@H]2C1c1ccccc1 (some centres undefined)	> 100	> 100	> 100	> 100	> 100	> 100	> 100	> 100	> 100	> 100	> 100	> 100	> 100			
CC1SC2=NC3=C(c4ccccc4C3=O)C(c3ccccc3Cl)N2C1=O (centres undefined)	> 100	> 100	> 100	> 100	> 100	> 100	> 100	> 100	> 100	> 100	> 100	> 100	> 100	> 100	> 100	> 100
CO/N=C(/C(=O)Nc1c[n+](CC(=O)[O-])cs1)c1csc(N)n1	> 100	> 100	> 100	> 100	> 100	> 100	> 100	> 100	> 100	> 100	> 100	> 100	> 100	> 100	> 100	
COc1cccc(C=O)c1[O-].COc1cccc(C=O)c1[O-].[Zn+2]	> 100	> 100	> 100	> 100	> 100	> 100	> 100	> 100	> 100	> 100	> 100	> 100	83.6	> 100		> 100
CSc1nc(NC2OCC(OC(C)=O)C(OC(C)=O)C2OC(C)=O)c2c(n1)OCC2=O (centres undefined)	> 100	> 100	> 100	> 100	> 100	> 100	> 100	> 100	> 100	> 100	> 100	> 100		> 100	> 100	> 100
COc1ccc(-c2cc(=O)c3cc(Cl)ccc3[nH]2)cc1	> 100		> 100	> 100		> 100	> 100	> 100	> 100	> 100	> 100	> 100	> 100	> 100		> 100
O=C1NC(=S)NC(=O)C1=CC1CC1	> 100	> 100	> 100	> 100	> 100	> 100	> 100	> 100	> 100	> 100	> 100	> 100	> 100	> 100	> 100	> 100
C#CC(C)(C)OCCCCOc1cc(O)c2c(=O)c3ccccc3n(C)c2c1	> 100	> 100	> 100	> 100	> 100	> 100	> 100	> 100	80.4	> 100	45.7	> 100	> 100	> 100	> 100	> 100
CC(C)(CCl)NC(=O)c1cccc(C(=O)NC(C)(C)CCl)n1	> 100	> 100	> 100	> 100	> 100	> 100	> 100	> 100	> 100	> 100	> 100	> 100	> 100	> 100	> 100	> 100
CCc1cccc(C(C)CC)c1NC(=O)C(=O)Cc1nc2ccccc2o1 (centres undefined)	> 50	> 50	> 50	> 50	> 50	> 50	> 50	> 50	> 50	> 50	> 50	> 50	> 50	> 50	> 50	> 50
CNS(=O)(=O)NNS(=O)(=O)c1ccc(F)cc1	> 100	> 100		> 100	> 100	> 100	> 100	> 100	> 100	> 100	> 100	> 100		> 100	> 100	> 100
Cc1cccc(N=Cc2ccc(N(CCC#N)S(=O)(=O)c3ccccc3)cc2C)c1	> 100	> 100	> 100	> 100	> 100	> 100	> 100		> 100	> 100	> 100	> 100	> 100	> 100	> 100	> 100
CCc1ccc(Cc2ccc(CC)c(NC(=O)C(=O)C3NC(=S)NC3=O)c2CC)c(CC)c1NC(=O)C(=O)C1NC(=S)NC1=O (centres undefined)	> 100	> 100	> 100	> 100	> 100	> 100		> 100	> 100	> 100		> 100	> 100	> 100	> 100	> 100
CC(C)(C)OC(=O)N1CC(C)(C)N2C(=O)C3(CCCO3)C12 (centres undefined)	> 100	> 100	> 100	> 100	> 100	30.4	> 100	> 100	> 100	> 100	> 100	> 100	> 100	> 100	> 100	> 100
Oc1ccc(C2Oc3cc(O)cc4c3C2c2cc(O)cc3c2C(c2cc(O)cc5c2C4C(c2ccc(O)cc2)O5)C(c2ccc(O)cc2)O3)cc1 (centres undefined)	> 25	> 25	> 25	> 25	> 25	> 25	17.3	> 25	> 25	> 25			21.3	> 25	> 25	15.5
